17 compounds from patent US12257243B2, “5-hydroxy-7-oxabicyclo[2.2.1]heptane-2-carboxamide derivatives for inducing chondrogenesis for treating joint damage” (NOVARTIS AG, priority 2018, dated 2025) can be followed below.

In the assay the target is ALP in normal human articular chondrocytes (NHACs). Description: Alkaline Phosphatase (ALP) activity assay (staining and quantitation) in NHACs, prevention of chondrocyte hypertrophy. The format is cell-based. The following applies: human IL-1 beta 10 ng/mL, 12 days; for IC50: Fast Blue RR staining, high content imaging, read-out: ALP in NHAC IC50; for ALP in NHAC (% Efficacy) / Emax: value in parentheses; for Emax: read-out: ALP in NHAC (% Efficacy). As to the method: The compounds of the present invention were evaluated in the Alkaline Phosphatase (ALP) activity assay to determine the ability of the compounds to prevent chondrocyte hypertrophy in normal human articular chondrocytes (NHACs).
Normal human articular chondrocytes (NHACs) were purchased from PromoCell (Heidelberg, Germany) and grown in Chondrocyte Growth Medium (CGM; Lonza, Walkersville, Md.).
NHACs were expanded in Chondrocyte Growth Medium (CGM) from Lonza until they reached a 60-80% confluency. To initiate differentiation, 7,500 cells were plated/well with indicated test compound dose in 384-well Cell Carrier Ultra plates (Perkin Elmer) with DMEM (SH30022—HyClone) containing 10% FBS (35-015-CV—Corning), 1% Pen/Strep antibiotics (SV30010—HyClone), and 1% Normocin (50 mg/mL—InvivoGen). Cells with test compounds were incubated at 37° C., 5% CO2 for 5 hours and then added human IL-1 beta (AF-200-1B—Peprotech) to each well at a final concentration of 10 ng/mL and incubated at 37° C., 5% CO2 for 12 days.
To detect the presence of hypertrophic cells, NHACs were fixed with 4% paraformaldehyde and Hoechst 33342 (Invitrogen) dye for 30 minutes, rinsed in PBS, then stained with Fast Blue RR Salt (F0500—Sigma) with Naphthol AS-MX Phosphate Alkaline Solution, 0.25% (855—Sigma-Aldrich).
The staining was imaged by fluorescent microscopy, using the 561 nm wavelength, and/or quantified by high content imaging with the Image press Confocal (Molecular Devices, Sunnyvale, Calif.). Data analyses were performed with a customized multiwavelength cell-scoring application.

Like-named read-outs stand apart in the source and are kept apart here.

`Cn1cc([C@H]2[C@H]3O[C@H](C[C@@H]3O)[C@@H]2C(=O)Nc2cccc(C(F)(F)F)c2)c(C(F)(F)F)n1` (single isomer, unassigned) [Example 32b, (1R,2R,3S,4R,5S)-5-hydroxy-3-(1-methyl-3-(trifluoromethyl)-1H-pyrazol-4-yl)-N-(3-(trifluoromethyl)phenyl)-7-oxabicyclo[2.2.1]heptane-2-carboxamide or (1S,2S,3R,4S,5R)-5-hydroxy-3-(1-methyl-3-(trifluoromethyl)-1H-pyrazol-4-yl)-N-(3-(trifluoromethyl)phenyl)-7-oxabicyclo[2.2.1]heptane-2-carboxamide]: the concentration for half-maximal inhibition (IC50) amounted to 16 µM and the “ALP in NHAC (% Efficacy)” value is reported as 109%.
In the case of `O=C(Nc1cccc(C(F)(F)F)c1)[C@@H]1[C@@H](c2cccc(C(F)(F)F)c2)[C@H]2O[C@@H]1C[C@@H]2O` (racemic) [Example 10, rac-(1R,2R,3S,4R,5S)-5-hydroxy-N,3-bis(3-(trifluoromethylphenyl)-7-oxabicyclo[2.2.1]heptane-2-carboxamide], where the note is “Chondrocyte, 288 h”, the concentration for half-maximal inhibition (IC50) stood at 12 µM and the Emax came out at 108%.
Take `Cc1cc(NC(=O)[C@@H]2[C@@H](c3cn(C)nc3C(F)(F)F)[C@H]3O[C@@H]2C[C@@H]3O)cc(C(F)(F)F)c1` (racemic) [Example 30, rac-(1R,2R,3S,4R,5)-5-hydroxy-3-(1-methyl-3-(trifluoromethyl)-1H-pyrazol-4-yl)-N-(3-methyl-5-(trifluoromethyl)phenyl)-7-oxabicyclo[2.2.1]heptane-2-carboxamide]: for the setting “Chondrocyte, 288 h”, the 50% inhibitory concentration (IC50) was 7.2 µM and the Emax is 81%.
Turning to `Cn1cc([C@H]2[C@H]3O[C@H](C[C@@H]3O)[C@@H]2C(=O)Nc2ccc(N3CCOCC3)c(C(F)(F)F)c2)c(C(F)(F)F)n1` (racemic) [Example 37, rac-(1R,2R,3S,4R,5S)-5-hydroxy-3-(1-methyl-3-(trifluoromethyl)-1H-pyrazol-4-yl)-N-(4-morpholino-3-(trifluoromethyl)phenyl)-7-oxabicyclo[2.2.1]heptane-2-carboxamide], where the note is “Chondrocyte, 288 h”, the IC50 was over 30 µM and the Emax amounted to 45%.
Turning to `N#Cc1ccc(NC(=O)[C@@H]2[C@@H](c3cccc(C(F)(F)F)c3)[C@H]3O[C@@H]2C[C@@H]3O)cc1C(F)(F)F` (racemic) [Example 46, rac-(1R,2R,3S,4R,5S)—N-(4-cyano-3-trifluoromethyl)phenyl)-5-hydroxy-3-(3-(trifluoromethyl)phenyl)-7-oxabicyclo[2.2.1]heptane-2-carboxamide], under “Chondrocyte, 288 h”, the IC50 turned out to be 14 µM and the Emax was determined as 50%.
The like results for `COc1cc([C@H]2[C@H]3O[C@H](C[C@@H]3O)[C@@H]2C(=O)Nc2cc(C(F)(F)F)ccc2C#N)ccn1` (racemic) [Example 78, rac-(1R,2R,3S,4R,5)-N-(2-cyano-5-trifluoromethyl)phenyl)-5-hydroxy-3-(2-methoxypyridin-4-yl)-7-oxabicyclo[2.2.1]heptane-2-carboxamide] were, in that order, 0.055 µM and 74%.
For `CC(C)n1cc([C@H]2[C@H]3O[C@H](C[C@@H]3O)[C@@H]2C(=O)Nc2cc(C(F)(F)F)ccc2C#N)c(C(F)(F)F)n1` (racemic) [Example 84, rac-(1R,2R,3S,4R,5S)—N-(2-cyano-5-(trifluoromethyl)phenyl)-5-hydroxy-3-(1-isopropyl-3-(trifluoromethyl)-1H-pyrazol-4-yl)-7-oxabicyclo[2.2.1]heptane-2-carboxamide], for the setting “Chondrocyte, 288 h”, the half-inhibitory concentration (IC50) worked out at 0.29 µM and the Emax stood at 86%.
Take `N#Cc1ccc(C(F)(F)F)cc1NC(=O)[C@@H]1[C@@H](c2cccc(C(F)(F)F)c2)[C@H]2O[C@@H]1C[C@@H]2O` (single isomer, unassigned) [Example 48a, (1R,2R,3S,4R,5S)—N-(2-cyano-5-(trifluoromethyl)phenyl)-5-hydroxy-3-(3-(trifluoromethyl)phenyl)-7-oxabicyclo[2.2.1]heptane-2-carboxamide or (1S,2S,3R,4S,5R)—N-(2-cyano-5-(trifluoromethyl)phenyl)-5-hydroxy-3-(3-(trifluoromethyl)phenyl)-7-oxabicyclo[2.2.1]heptane-2-carboxamide]: the concentration for half-maximal inhibition (IC50) turned out to be 1.5 µM and the “ALP in NHAC (% Efficacy)” value came out at 109%.
As for `Cn1cc([C@H]2[C@H]3O[C@H](C[C@@H]3O)[C@@H]2C(=O)Nc2cccc(C(F)(F)F)c2)c(C(F)(F)F)n1` (racemic) [Example 32, rac-(1R,2R,3S,4R,5S)-5-hydroxy-3-(1-methyl-3-(trifluoromethyl)-1H-pyrazol-4-yl)-N-(3-(trifluoromethyl)phenyl)-7-oxabicyclo[2.2.1]heptane-2-carboxamide], for the setting “Chondrocyte, 288 h”, the IC50 was 7.2 µM and the Emax amounted to 78%.
In the case of `Cn1nc(C(F)(F)F)cc1[C@H]1[C@H]2O[C@H](C[C@@H]2O)[C@@H]1C(=O)Nc1ccc(C(F)(F)F)cc1` (racemic) [Example 62, rac-(1R,2R,3S,4R,5S)-5-hydroxy-3-(1-methyl-3-(trifluoromethyl)-1H-pyrazol-5-yl)-N-(4-(trifluoromethyl)phenyl)-7-oxabicyclo[2.2.1]heptane-2-carboxamide], where the note is “Chondrocyte, 288 h”, the IC50 was 16 µM and the Emax came out at 73%.
`Cn1cc([C@H]2[C@H]3O[C@H](C[C@@H]3O)[C@@H]2C(=O)Nc2cc(C(F)(F)F)ccc2C#N)c(C(F)(F)F)n1` (racemic) [Example 49, rac-(1R,2R,3S,4R,5S)—N-(2-cyano-5-(trifluoromethyl)phenyl)-5-hydroxy-3-(1-methyl-3-(trifluoromethyl)-1H-pyrazol-4-yl)-7-oxabicyclo[2.2.1]heptane-2-carboxamide]: under “Chondrocyte, 288 h”, the half-maximal inhibitory concentration (IC50) was found to be 0.53 µM and the Emax worked out at 96%.
Take `O=C(Nc1ccc(C(F)(F)F)c(Cl)n1)[C@@H]1[C@@H](c2cccc(C(F)(F)F)c2)[C@H]2O[C@@H]1C[C@@H]2O` (single isomer, unassigned) [Example 25b, (1R,2R,3S,4R,5S)—N-(6-chloro-5-(trifluoromethyl)pyridin-2-yl)-5-hydroxy-3-(3-(trifluoromethyl)phenyl)-7-oxabicyclo[2.2.1]heptane-2-carboxamide or (1S,2S,3R,4S,5R)—N-(6-chloro-5-(trifluoromethylpyridin-2-yl)-5-hydroxy-3-(3-(trifluoromethyl)phenyl)-7-oxabicyclo[2.2.1]heptane-2-carboxamide]: the IC50 is 0.84 µM and the “ALP in NHAC (% Efficacy)” value was determined as 99%.
Take `O=C(Nc1cccc(C(F)(F)F)c1)[C@@H]1[C@@H](c2ccnc(C(F)(F)F)c2)[C@H]2O[C@@H]1C[C@@H]2O` (racemic) [Example 63, rac-(1R,2R,3S,4R,5S)-5-hydroxy-N-(3-(trifluoromethyl)phenyl)-3-(2-(trifluoromethyl)pyridin-4-yl)-7-oxabicyclo[2.2.1]heptane-2-carboxamide]: where the note is “Chondrocyte, 288 h”, the half-maximal inhibitory concentration (IC50) was found to be 18 µM and the Emax came out at 44%.
On to `COc1cc([C@H]2[C@H]3O[C@H](C[C@@H]3O)[C@@H]2C(=O)Nc2ccc(C)c(C(F)(F)F)c2)ccn1` (racemic) [Example 68, rac-(1R,2R,3,4R,5S)-5-hydroxy-3-(2-methoxypyridin-4-yl)-N-(4-methyl-3-(trifluoromethyl)phenyl)-7-oxabicyclo[2.2.1]heptane-2-carboxamide], for which, for the setting “Chondrocyte, 288 h”, the IC50 was over 30 µM and the Emax stood at 31%.
For `CCOc1ccc(NC(=O)[C@@H]2[C@@H](c3cn(C)nc3C(F)(F)F)[C@H]3O[C@@H]2C[C@@H]3O)cc1C(F)(F)F` (racemic) [Example 44, rac-(1R,2R,3S,4R,5S)—N-(4-ethoxy-3-(trifluormethyl)phenyl)-5-hydroxy-3-(1-methyl-3-(trifluoromethyl)-1H-pyrazol-4-yl)-7-oxabicyclo[2.2.1]heptane-2-carboxamide] the same measures were 14 µM and 89%.
For `COc1cc([C@H]2[C@H]3O[C@H](C[C@@H]3O)[C@@H]2C(=O)Nc2ccc(C(F)(F)F)c(Cl)c2)ccn1` (racemic) [Example 79, rac-(1R,2R,3S,4R,5S)—N-(3-chloro-4-trifluoromethyl)phenyl)-5-hydroxy-3-(2-methoxypyridin-4-yl)-7-oxabicyclo[2.2.1]heptane-2-carboxamide] the same measures were 12 µM and 75%.
`Cn1nc(C(F)(F)F)cc1[C@H]1[C@H]2O[C@H](C[C@@H]2O)[C@@H]1C(=O)Nc1cc(C(F)(F)F)ccc1C#N` (single isomer, unassigned) [Example 72a, (1R,2R,3S,4R,5S)—N-(2-cyano-5-(trifluoromethyl)phenyl)-5-hydroxy-3-(1-methyl-3-(trifluoromethyl)-1H-pyrazol-5-yl)-7-oxabicyclo[2.2.1]heptane-2-carboxamide or (1S,2S,3R,4S,5R)—N-(2-cyano-5-(trifluoromethyl)phenyl)-5-hydroxy-3-(1-methyl-3-(trifluoromethyl)-1-pyrazol-5-yl)-7-oxabicyclo[2.2.1]heptane-2-carboxamide]: the half-inhibitory concentration (IC50) worked out at 3.1 µM and the “ALP in NHAC (% Efficacy)” value came to 107%.

Usually IC50 stands for the point on the concentration scale where inhibition reaches its midpoint.
